Source: the supplement of paper PMC10307832

Key:
Assay in all cases: relative viability (nuclei count vs DMSO), 5 days (fraction); higher = more cells survive
Alisertib + Vorinostat = compound: COc1cc(Nc2ncc3c(n2)-c2ccc(Cl)cc2C(c2c(F)cccc2OC)=NC3)ccc1C(=O)O [Alisertib] + O=C(CCCCCCC(=O)Nc1ccccc1)NO [Vorinostat] (partner 1 µM)
Outline: (§1)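 Cells from lung cancer lines were seeded into 1536-well plates and, one day later, dosed by pin tool. Treatments were either a single drug or a fixed dose of an anchor drug with five library-drug doses (not always all listed) in √10 steps. After 5 days, nuclei were stained in a one-step fixation (final 0.05% Triton X-100, 1% formaldehyde, 1 ug/ml Hoechst) and counted on 4× images, and relative viability is the treated-to-vehicle nuclei ratio, as the median of duplicate plates.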

Alisertib + Foretinib = compound: COc1cc(Nc2ncc3c(n2)-c2ccc(Cl)cc2C(c2c(F)cccc2OC)=NC3)ccc1C(=O)O [Alisertib] + COc1cc2c(Oc3ccc(NC(=O)C4(C(=O)Nc5ccc(F)cc5)CC4)cc3F)ccnc2cc1OCCCN1CCOCC1 [Foretinib] (partner 0.25 µM)
Outline: as §1

Alisertib + Pictilisib = compound: COc1cc(Nc2ncc3c(n2)-c2ccc(Cl)cc2C(c2c(F)cccc2OC)=NC3)ccc1C(=O)O [Alisertib] + CS(=O)(=O)N1CCN(Cc2cc3nc(-c4cccc5[nH]ncc45)nc(N4CCOCC4)c3s2)CC1 [Pictilisib] (partner 1 µM)
Outline: as §1

Alisertib + AZD7762 = compound: COc1cc(Nc2ncc3c(n2)-c2ccc(Cl)cc2C(c2c(F)cccc2OC)=NC3)ccc1C(=O)O [Alisertib] + NC(=O)Nc1cc(-c2cccc(F)c2)sc1C(=O)N[C@H]1CCCNC1 [AZD7762] (partner 0.2 µM)
Outline: as §1

Cell Line	relative viability (Alisertib + Vorinostat; first compound 0.005 µM)	relative viability (Alisertib + Vorinostat; first compound 0.01581 µM)	relative viability (Alisertib + Vorinostat; first compound 0.05 µM)	relative viability (Alisertib + Vorinostat; first compound 0.1581 µM)	relative viability (Alisertib + Vorinostat; first compound 0.5 µM)	relative viability (Alisertib + Foretinib; first compound 0.005 µM)	relative viability (Alisertib + Foretinib; first compound 0.01581 µM)	relative viability (Alisertib + Foretinib; first compound 0.05 µM)	relative viability (Alisertib + Foretinib; first compound 0.1581 µM)	relative viability (Alisertib + Foretinib; first compound 0.5 µM)	relative viability (Alisertib + Pictilisib; first compound 0.005 µM)	relative viability (Alisertib + Pictilisib; first compound 0.01581 µM)	relative viability (Alisertib + Pictilisib; first compound 0.05 µM)	relative viability (Alisertib + Pictilisib; first compound 0.1581 µM)	relative viability (Alisertib + Pictilisib; first compound 0.5 µM)	relative viability (Alisertib + AZD7762; first compound 0.005 µM)	relative viability (Alisertib + AZD7762; first compound 0.01581 µM)	relative viability (Alisertib + AZD7762; first compound 0.05 µM)	relative viability (Alisertib + AZD7762; first compound 0.1581 µM)	relative viability (Alisertib + AZD7762; first compound 0.5 µM)
NCI-H2228	0.544	0.671	0.373	0.0949	0.104	0.734	0.642	0.493	0.0956	0.114	0.362	0.419	0.228	0.119	0.138	–	–	–	–	–
NCI-H2087	0.758	0.667	0.173	0.106	0.133	1.12	0.856	0.176	0.172	0.119	0.791	0.791	0.247	0.166	0.191	1.17	1.29	0.293	0.214	0.185
LU99A	0.467	0.428	0.177	0.16	0.187	0.741	0.762	0.361	0.27	0.205	0.404	0.341	0.252	0.159	0.151	0.502	0.296	0.158	0.131	0.136
NCI-H1355	0.589	0.522	0.525	0.204	0.177	0.88	0.892	0.343	0.244	0.202	0.37	0.374	0.28	0.181	0.164	0.707	0.641	0.364	0.168	0.146
NCI-H520	0.588	0.455	0.325	0.276	0.208	1.15	0.644	0.486	0.266	0.322	0.23	0.203	0.209	0.179	0.187	–	–	–	–	–
NCI-H727	1.19	0.986	0.939	0.471	0.561	0.658	0.922	0.488	0.352	0.417	0.273	0.333	0.236	0.236	0.225	0.618	0.586	0.591	0.398	0.326
NCI-H661	0.771	0.729	0.435	0.355	0.276	0.995	1.04	0.813	0.423	0.369	0.378	0.379	0.229	0.245	0.242	–	–	–	–	–
NCI-H650	0.263	0.414	0.144	0.17	0.131	0.926	0.902	0.407	0.226	0.222	0.732	0.825	0.29	0.267	0.174	0.772	0.738	0.37	0.255	0.259
UMC-11	0.262	0.169	0.113	0.118	0.161	0.648	0.263	0.189	0.195	0.168	0.316	0.379	0.129	0.137	0.133	–	–	–	–	–
COR-L23	0.347	0.35	0.151	0.09	0.0909	0.848	0.823	0.606	0.243	0.128	0.662	0.632	0.248	0.137	0.0917	–	–	–	–	–
SW 1573	0.803	0.288	0.239	0.233	0.109	0.911	0.772	0.667	0.245	0.172	0.466	0.387	0.2	0.158	0.112	–	–	–	–	–
NCI-H1650	0.57	0.488	0.388	0.176	0.185	1.19	0.873	0.653	0.23	0.231	0.527	0.461	0.328	0.151	0.166	–	–	–	–	–
SK-MES-1	0.954	0.976	0.365	0.206	0.216	0.779	0.928	0.74	0.233	0.189	0.326	0.333	0.212	0.147	0.123	–	–	–	–	–
NCI-H2009	0.684	0.699	0.234	0.204	0.134	1.19	1.05	0.618	0.429	0.248	0.787	0.787	0.387	0.185	0.139	–	–	–	–	–
NCI-H2023	0.565	0.31	0.215	0.12	0.0981	0.936	0.743	0.501	0.46	0.0916	0.193	0.194	0.191	0.128	0.0717	–	–	–	–	–
COR-L 105	0.687	0.701	0.496	0.302	0.321	0.937	1.11	0.919	0.662	0.271	0.44	0.34	0.336	0.264	0.281	–	–	–	–	–
NCI-H1563	–	–	–	–	–	0.908	0.833	0.846	0.818	0.607	0.646	0.608	0.606	0.717	0.296	–	–	–	–	–
EBC-1	–	–	–	–	–	0.109	0.103	0.08	0.0764	0.0821	0.394	0.282	0.112	0.158	0.121	–	–	–	–	–
SK-LU-1	0.749	0.427	0.287	0.251	0.246	0.818	0.66	0.324	0.227	0.182	0.58	0.386	0.312	0.266	0.209	–	–	–	–	–
Calu-6	–	–	–	–	–	0.855	0.599	0.228	0.155	0.137	0.726	0.379	0.164	0.171	0.153	–	–	–	–	–
HCC-44	1.05	0.784	0.397	0.387	0.339	–	–	–	–	–	0.623	0.598	0.572	0.153	0.159	0.888	0.992	0.966	0.588	0.439
